# According to patent US5866570A, “Treatment of vascular leakage and related syndrome such as septic shock by administration of metalloproteinase inhibitors” (Wisconsin Alumni Research Foundation, priority 1994, dated 1999):
# Values joined by “and” are separate entries in the source; they are usually repeats but may differ in a detail not shown here. Identical values can stand only once. Like-named read-outs stand apart in the source and are kept apart here.
# Columns and labels:
# mouse L cell = details: l cells; read-out: ID50 inhibition of colony formation; cited from earlier work
# mouse-embryo fibroblasts = details: cited from earlier work
# [1] = tested on: LS-MET-5 human colon carcinoma cells; assay: LS-MET-5 i.v. human colon carcinoma metastasis model in nude mice; assay type: in vivo
# Description: This example evaluates the effect of probimane on the survival of mice which have been injected with LS-MET-5 human colon carcinoma cells. In particular, probimane was given at 26 mg/kg in CMC, 1 intraperitoneal dose/day starting 1 day prior to intravenous injection of 1 million LS-MET-5 human colon carcinoma cells, at either 3 or 5 doses per week. During the first week the treated mice experienced a small weight drop and the dosage was decreased to 10.4 mg/kg. The control mice received CMC only at 10 μl/g.
# Dose and Schedule--was suspended in sterile 1% CMC (carboxymethyl cellulose) […] by sonication in a water bath. […] Mice received drug 24 hours prior to injection of cells and each mouse received one dose/day i.p. for 5 consecutive days with 2 days of recovery or 3 consecutive days with 4 days of recovery. Treatment continued until mouse death or sacrifice.
# LS-MET-5--human colon carcinoma metastatic variant cell line was developed at Oncologix, Inc. The cells are maintained in culture in DMEM+10% FBS and are dissociated for injection with trypsin/versine. The cells are resuspended in HBSS and 1 million cells injected in 100 μl into the lateral tail vein of the mouse.
# Mice--HSD nu/nu female mice 6 weeks old (18-22 g) are weighed, tagged with a metal ear clip, and radomized for treatment or control groups. Mice are weighed daily and the dose of drug or vehicle is calculated.
# Superficial metastases in the regional lymph nodes, dorsal thoracic brown fact pad, thigh muscle and on the rib cage begin appearing around day 22. Tumor growth is rapid with small metastases quickly coalescing to form a solid collar of metastases around the neck region of the mouse.
# Although we have improved the incidence of mice with metastases by eliminating mice with less than perfect initial i.v. injections, we are still only 90% incidence. The experiment is terminated when the last mouse with evidence of metastases dies. The remaining mice are necropsied for presence of micro-metastases. We have found evidence that cells were indeed injected iv.
# [2] = at 25° C.; cited from earlier work
# S180 tumors = details: therapeutic index in vivo; cited from earlier work
# [3] = target: T1, recombinant human 72 kD type IV collagenase (Oncologix), APMA activated (Homo sapiens, UniProt P08253); assay: gelatinase assay, Example 11; assay type: biochemical; details: 10 ng enzyme, 2 hours preincubation at 37° C., 20 min assay, 3H collagen substrate; read-out: IC50 for inhibition of the 72 kD collagenase type IV
# T1 construct: purchased Oncologix
# T1 sequence (P08253 110-660): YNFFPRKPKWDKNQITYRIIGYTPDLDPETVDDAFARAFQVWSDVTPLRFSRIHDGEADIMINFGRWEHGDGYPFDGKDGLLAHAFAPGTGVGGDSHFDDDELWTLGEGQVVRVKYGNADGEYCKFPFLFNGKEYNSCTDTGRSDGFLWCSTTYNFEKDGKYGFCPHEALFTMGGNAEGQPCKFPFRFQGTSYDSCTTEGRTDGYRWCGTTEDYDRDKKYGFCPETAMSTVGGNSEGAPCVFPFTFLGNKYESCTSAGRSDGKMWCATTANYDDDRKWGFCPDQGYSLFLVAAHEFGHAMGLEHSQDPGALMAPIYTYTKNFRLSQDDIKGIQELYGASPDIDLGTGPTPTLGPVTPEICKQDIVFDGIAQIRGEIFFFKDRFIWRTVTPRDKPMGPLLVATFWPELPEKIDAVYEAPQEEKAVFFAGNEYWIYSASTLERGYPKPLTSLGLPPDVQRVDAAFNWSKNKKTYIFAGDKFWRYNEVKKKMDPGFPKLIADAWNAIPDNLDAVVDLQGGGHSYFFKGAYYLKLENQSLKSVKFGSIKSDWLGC
# Description: NET-660 Collagen (Rat Type I), N-[Propionate-2-3-^3 H] Propionylated (NEN Dupont) with a specific activity of 0.4 mCi/mg, rat type I Collagen (Sigma), P-aminophenylmercuric acetate, APMA (Sigma), recombinant human 72 kD type IV collagenase (Oncologix) with a specific activity of at least 1000 μg collagen digested/hour/μg enzyme, collagenase buffer (50 mM Tris-HCl, 5 mM CaCl2, 200 mM NaCl, 0.02% Brij-35, pH 7.6), bovine serum albumin (BSA), 250 mM EDTA, and 10% TCA+0.7% tannic acid. The substrate is prepared by mixing the ^3 H collagen with the cold collagen at a 2/3 ratio and diluting in the collagenase buffer. The final assay concentration of the ^3 H collagen is 1% or between 20,000 to 40,000 cpm. Inhibitors are prepared just prior to use by dissolving in DMSO (final assay concentration<1%) or collagenase buffer.
# The 72 kD collagenase enzyme is activated with 0.5 mM APMA for 30 min. at 37° C. and 10 ng of enzyme per assay is used. Inhibitors are preincubated with activated enzyme for 2 hours at 37° C. in collagenase buffer. Substrate is then added to enzyme inhibitor mix and the assay is run for 20 min at 37° C. […] Undigested substrate is precipitated with the TCA/tannic acid solution and soluble counts are determined in a scintillation counter.
# Lewis lung LL carcinoma = details: cited from earlier work
# [4] = postamputation schedule LL model
smiles,measurement,setting,value
O=C1CN(CCN2CC(=O)NC(=O)C2)CC(=O)N1 [ICRF-154],IC50,mouse L cell,7.3 µM
same,"IC50, inhibition of [3H]thymidine incorporation",mouse-embryo fibroblasts,2.0 µg/mL
"CC(CN1CC(=O)N(CN2CCOCC2)C(=O)C1)N1CC(=O)N(CN2CCOCC2)C(=O)C1 (centres unmarked) [Probimane, probimane]",toxicity (body weight),[1]; 26 mg/Kg i.p. during the first week,weight drop indicated toxicity
same,Mean IST,[1]; 3×/Week,19%
same,Mean Survival,[1]; 3×/Week,52
same,Median IST,[1]; 3×/Week,18%
same,Median Survival,[1]; 3×/Week,47
same,Day of Death,"[1]; 3×/Week, 26 then 10.4 mg/kg i.p., single mice",43 and 44 and 45 and 46 and 52 and 62 and 63
same,Mean IST,[1]; 5×/Week,16%
same,Mean Survival,[1]; 5×/Week,50
same,Median IST,[1]; 5×/Week,18%
same,Median Survival,[1]; 5×/Week,47
same,Incidence of superficial metastases,"[1]; Day 29, 3×/Week",7/11
same,superficial Mets/Mouse,"[1]; Day 29, 3×/Week",1.1
same,Incidence of superficial metastases,"[1]; Day 29, 5×/Week",5/11
same,superficial Mets/Mouse,"[1]; Day 29, 5×/Week",1.2
same,Incidence of superficial metastases,"[1]; Day 30, 3×/Week",7/11
same,superficial Mets/Mouse,"[1]; Day 30, 3×/Week",1.9
same,Incidence of superficial metastases,"[1]; Day 30, 5×/Week",10/11
same,superficial Mets/Mouse,"[1]; Day 30, 5×/Week",1.2
same,Incidence of superficial metastases,"[1]; Day 31, 3×/Week",7/11
same,superficial Mets/Mouse,"[1]; Day 31, 3×/Week",1.9
same,Incidence of superficial metastases,"[1]; Day 31, 5×/Week",11/11
same,superficial Mets/Mouse,"[1]; Day 31, 5×/Week",1.1
same,Incidence of superficial metastases,"[1]; Day 32, 3×/Week",7/11
same,superficial Mets/Mouse,"[1]; Day 32, 3×/Week",1.9
same,Incidence of superficial metastases,"[1]; Day 32, 5×/Week",11/11
same,superficial Mets/Mouse,"[1]; Day 32, 5×/Week",1.8
same,condition of the treated mice,"[1]; mouse, in vivo","pale and grayish in color, with scruffy coats, and were cold to the touch"
"O=C1CN([C@@H]2C[C@@H](O)[C@@H](O)C[C@@H]2N2CC(=O)NC(=O)C2)CC(=O)N1 [Compound 89, (1β, 2β, 4α, 5α)-4,4'-(4,5-dihydroxy-1,2-cyclohexanediyl)bis(2,6-piperazinedione)]",solubility in water,[2],29.3 mg/mL
CC(C(C)N1CC(=O)NC(=O)C1)N1CC(=O)NC(=O)C1 (centres unmarked) [ICRF-193],IC50,mouse L cell,0.09 µM
same,calculated ratio of maximum tolerated dose to the dose required for 90% inhibition of S180 tumor growth,S180 tumors,6.7
same,"IC50, inhibition of [3H]thymidine incorporation",mouse-embryo fibroblasts,0.035 µg/mL
CCC(CN1CC(=O)NC(=O)C1)N1CC(=O)NC(=O)C1 (centres unmarked) [ICRF-192],IC50,mouse L cell,720 µM
"O=C(O)CN(CCN(CC(=O)O)CC(=O)O)CC(=O)O [EDTA, ethylenediaminetetraacetic acid]",IC50,[3],300 µM
CC(C(C)N1CC(=O)NC(=O)C1)N1CC(=O)NC(=O)C1 (centres unmarked) [ICRF-196],IC50,mouse L cell,150 µM
same,"IC50, inhibition of [3H]thymidine incorporation",mouse-embryo fibroblasts,inactive
O=C1CN2C[C@@H]3C(=O)NC(=O)CN3C[C@@H]2C(=O)N1 (relative stereo) [Compound 23],antimetastatic effect,Lewis lung LL carcinoma; implanted LL carcinoma,no antimetastatic effects
same,antimetastatic effect,"Lewis lung LL carcinoma; implanted LL carcinoma, listed as cis-23",does not exhibit any appreciable antimetastatic effect
O=C1CN2CCN3CC(=O)N(CN4CCOCC4)C(=O)[C@H]3[C@@H]2C(=O)N1CN1CCOCC1 (relative stereo),antimetastatic effect,Lewis lung LL carcinoma; [4],considerable antimetastatic activity
O=C1CN2C[C@H]3C(=O)NC(=O)CN3C[C@@H]2C(=O)N1 [Compound 22],antimetastatic effect,Lewis lung LL carcinoma; implanted LL carcinoma,no antimetastatic effects
O=C1CN(CCCN2CC(=O)NC(=O)C2)CC(=O)N1 [ICRF-161],"IC50, inhibition of [3H]thymidine incorporation",mouse-embryo fibroblasts,inactive
O=C1CN2C[C@@H]3C(=O)N(CN4CCOCC4)C(=O)CN3C[C@@H]2C(=O)N1CN1CCOCC1 (relative stereo) [morpholinomethyl derivative of cis-23],antimetastatic effect,Lewis lung LL carcinoma; implanted LL carcinoma,inhibits metastasis
O=C1CN2CCN3CC(=O)N(CN4CCOCC4)C(=O)[C@H]3[C@H]2C(=O)N1CN1CCOCC1,antimetastatic effect,Lewis lung LL carcinoma; [4],most effective inhibitor of metastasis
